Reference: ChEMBL document CHEMBL1135564, “Diaryl-dialkyl-substituted pyrazoles: regioselective synthesis and binding affinity for the estrogen receptor” (Bioorg Med Chem Lett, 2002)

Columns and labels:
[1] = molecular target: Estrogen receptor (Homo sapiens) (UniProt Q92731+P03372); test: Selectivity ratio as relative binding affinity for estrogen receptor alpha and beta; type: protein assay
[2] = molecular target: Estrogen receptor beta (Homo sapiens) (UniProt Q92731); test: Relative binding affinity (RBA) for human Estrogen receptor beta compared to estradiol
Chain of Estrogen receptor beta (Homo sapiens) (Q92731 whole entry): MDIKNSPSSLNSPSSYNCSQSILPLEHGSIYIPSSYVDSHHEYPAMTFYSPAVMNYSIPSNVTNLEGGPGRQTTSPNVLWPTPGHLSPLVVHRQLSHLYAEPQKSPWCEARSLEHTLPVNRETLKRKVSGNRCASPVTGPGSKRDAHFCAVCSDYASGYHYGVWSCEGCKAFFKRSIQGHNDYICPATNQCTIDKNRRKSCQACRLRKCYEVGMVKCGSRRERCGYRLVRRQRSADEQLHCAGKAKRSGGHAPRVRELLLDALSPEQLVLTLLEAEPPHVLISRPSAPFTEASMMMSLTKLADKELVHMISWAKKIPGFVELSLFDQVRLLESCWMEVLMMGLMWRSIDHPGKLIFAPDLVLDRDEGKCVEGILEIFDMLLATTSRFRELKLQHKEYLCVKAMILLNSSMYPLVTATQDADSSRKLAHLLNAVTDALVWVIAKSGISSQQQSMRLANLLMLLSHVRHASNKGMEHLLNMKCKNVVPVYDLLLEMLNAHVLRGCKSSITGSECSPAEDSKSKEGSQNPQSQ

[3] = molecular target: T1, Estrogen receptor (Homo sapiens) (UniProt P03372); test: Relative binding affinity (RBA) for human Estrogen receptor alpha compared to estradiol
T1 sequence (whole entry): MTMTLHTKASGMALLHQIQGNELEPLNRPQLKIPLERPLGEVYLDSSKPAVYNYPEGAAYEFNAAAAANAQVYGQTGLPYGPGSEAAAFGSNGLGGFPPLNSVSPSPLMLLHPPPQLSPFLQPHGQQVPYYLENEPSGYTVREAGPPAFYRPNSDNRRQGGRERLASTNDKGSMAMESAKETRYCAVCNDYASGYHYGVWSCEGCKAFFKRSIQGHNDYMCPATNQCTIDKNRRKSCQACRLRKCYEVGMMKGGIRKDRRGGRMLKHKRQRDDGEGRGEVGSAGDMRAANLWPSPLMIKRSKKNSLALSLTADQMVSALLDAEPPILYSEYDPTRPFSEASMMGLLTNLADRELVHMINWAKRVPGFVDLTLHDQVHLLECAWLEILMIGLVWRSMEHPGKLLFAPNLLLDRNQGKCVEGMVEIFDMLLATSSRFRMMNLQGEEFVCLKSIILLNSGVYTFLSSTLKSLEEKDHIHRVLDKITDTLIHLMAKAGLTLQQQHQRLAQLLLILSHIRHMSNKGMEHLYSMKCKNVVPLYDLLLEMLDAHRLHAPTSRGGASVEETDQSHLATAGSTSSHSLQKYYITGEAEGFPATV

| Ratio [1] | Affinity [2] | Affinity [3] | SMILES |
| --- | --- | --- | --- |
| 410 | 0.12 | 49 | CCCc1c(-c2ccc(O)cc2)nn(-c2ccc(O)cc2)c1-c1ccc(O)cc1 |
| 2.3 | 13 | 30 | CCCc1c(-c2ccc(O)cc2)nn(C2CCCCC2)c1-c1ccc(O)cc1 |
| 6 | 0.6 | 3.6 | CCCc1c(-c2ccc(O)cc2)nn(-c2ccc(O)cc2)c1C1CCCC1 |
| 9.4 | 0.11 | 1.1 | CCCc1c(-c2ccc(O)cc2)nn(-c2ccc(O)cc2)c1C1CCCCC1 |
| 13 | 0.042 | 0.56 | Oc1ccc(-c2nn(-c3ccc(O)cc3)c3c2CCCC3)cc1 |
| 8.9 | 0.23 | 2.1 | CCc1c(-c2ccc(O)cc2)nn(-c2ccc(O)cc2)c1C1CCCC1 |
| 4.2 | 0.14 | 0.59 | CCc1c(-c2ccc(O)cc2)nn(-c2ccc(O)cc2)c1C1CCCCC1 |
| 1 | 71 | 74 | CCCc1c(-c2ccc(O)cc2)nn(C2CCCC2)c1-c1ccc(O)cc1 |
| 4 | 0.047 | 0.19 | Oc1ccc(-c2nn(-c3ccc(O)cc3)c3c2CCCCC3)cc1 |
